Source: patent US8633183B2 (priority 2010, dated 2014)

Target: PI3Kalpha (Homo sapiens (Human), UniProt P42336)
Conditions: read-out: IC50 PI3K

PI3Kalpha, sequence (P42336 whole entry, looked up): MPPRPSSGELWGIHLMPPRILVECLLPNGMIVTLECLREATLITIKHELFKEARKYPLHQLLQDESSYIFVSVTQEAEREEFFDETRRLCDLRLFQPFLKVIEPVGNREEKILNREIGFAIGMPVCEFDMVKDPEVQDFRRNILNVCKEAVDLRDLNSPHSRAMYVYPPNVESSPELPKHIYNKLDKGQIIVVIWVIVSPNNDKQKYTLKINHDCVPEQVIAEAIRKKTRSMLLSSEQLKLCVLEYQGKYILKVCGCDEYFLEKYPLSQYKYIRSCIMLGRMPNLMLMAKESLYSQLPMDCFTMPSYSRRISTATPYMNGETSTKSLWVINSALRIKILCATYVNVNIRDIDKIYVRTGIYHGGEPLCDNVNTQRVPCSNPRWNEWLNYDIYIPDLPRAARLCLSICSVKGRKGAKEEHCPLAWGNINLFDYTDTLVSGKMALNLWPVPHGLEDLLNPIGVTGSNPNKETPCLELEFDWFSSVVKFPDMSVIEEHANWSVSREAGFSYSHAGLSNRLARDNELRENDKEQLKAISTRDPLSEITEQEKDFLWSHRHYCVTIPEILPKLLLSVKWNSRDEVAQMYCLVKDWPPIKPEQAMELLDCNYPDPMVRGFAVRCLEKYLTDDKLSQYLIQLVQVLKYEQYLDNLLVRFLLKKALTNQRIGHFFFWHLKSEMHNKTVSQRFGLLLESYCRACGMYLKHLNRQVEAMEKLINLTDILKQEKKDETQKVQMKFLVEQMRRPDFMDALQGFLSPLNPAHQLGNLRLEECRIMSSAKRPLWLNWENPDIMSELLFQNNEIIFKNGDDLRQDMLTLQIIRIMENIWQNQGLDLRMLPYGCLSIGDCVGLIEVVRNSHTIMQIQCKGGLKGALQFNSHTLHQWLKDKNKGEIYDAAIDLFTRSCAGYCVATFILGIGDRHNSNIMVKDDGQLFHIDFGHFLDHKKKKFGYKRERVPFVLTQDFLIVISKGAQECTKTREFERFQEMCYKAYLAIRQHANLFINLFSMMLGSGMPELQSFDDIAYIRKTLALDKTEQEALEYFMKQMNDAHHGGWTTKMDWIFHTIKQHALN

SMILES | IC50 [nM]
CCc1ncnc(-c2ccc(C(=O)N3CCC(N4CCCC4)C3)c(F)c2)c1C#Cc1ccc(N)nc1 [Example D-235] | 226
CCc1ncnc(-c2ccc(C(=O)N3CC[C@@H](N(C)C)C3)c(F)c2)c1C#Cc1ccc(N)nc1 [Example D-236] | 269
CCc1ncnc(-c2ccc(C(=O)N3CC[C@H](N(C)C)C3)c(F)c2)c1C#Cc1ccc(N)nc1 [Example D-237] | 161
CCc1ncnc(-c2ccc(C(=O)N3CCC(N(CC)CC)C3)c(F)c2)c1C#Cc1ccc(N)nc1 [Example D-238] | 382
CCc1ncnc(-c2ccc(C(=O)N3CCOCC3)c(F)c2)c1C#Cc1ccc(N)nc1 [Example D-239] | 55
CCc1ncnc(-c2ccc(C(=O)N3CCN(C)CC3)nc2)c1C#Cc1ccc(N)nc1 [Example D-240] | 214
CCc1ncnc(-c2cc(F)c(C(=O)N3CCN(C)CC3)c(F)c2)c1C#Cc1ccc(N)nc1 [Example E-1] | 132
CCc1ncnc(-c2cc(F)c(C(=O)N3CCN(C(C)C)CC3)c(F)c2)c1C#Cc1ccc(N)nc1 [Example E-2] | 237
CCc1ncnc(-c2cc(F)c(C(=O)N3CCN(CC)CC3)c(F)c2)c1C#Cc1ccc(N)nc1 [Example E-3] | 276
CCCN1CCN(C(=O)c2c(F)cc(-c3ncnc(CC)c3C#Cc3ccc(N)nc3)cc2F)CC1 [Example E-4] | 133
CCc1ncnc(-c2cc(F)c(C(=O)N3CCN(CCOC)CC3)c(F)c2)c1C#Cc1ccc(N)nc1 [Example E-5] | 78.8
CCc1ncnc(-c2cc(F)c(C(=O)N3CCN(C4CCOCC4)CC3)c(F)c2)c1C#Cc1ccc(N)nc1 [Example E-6] | 124
CCc1ncnc(-c2cc(F)c(C(=O)N3CCN(CC4CC4)CC3)c(F)c2)c1C#Cc1ccc(N)nc1 [Example E-7] | 189
CCc1ncnc(-c2cc(F)c(C(=O)N3CCN(C(C)(C)C)CC3)c(F)c2)c1C#Cc1ccc(N)nc1 [Example E-8] | 1320
CCc1ncnc(-c2cc(F)c(C(=O)N3CCC(N4CCOCC4)CC3)c(F)c2)c1C#Cc1ccc(N)nc1 [Example E-9] | 199
CCc1ncnc(-c2cc(F)c(C(=O)N(C)C)c(F)c2)c1C#Cc1ccc(N)nc1 [Example E-10] | 49.1
CCc1ncnc(-c2cc(F)c(C(=O)N3CCCC3)c(F)c2)c1C#Cc1ccc(N)nc1 [Example E-11] | 125
CCc1ncnc(-c2cc(F)c(C(=O)NC)c(F)c2)c1C#Cc1ccc(N)nc1 [Example E-12] | 65
CCc1ncnc(-c2cc(F)c(C(=O)NCCN3CCOCC3)c(F)c2)c1C#Cc1ccc(N)nc1 [Example E-13] | 154
CCc1ncnc(-c2cc(F)c(C(=O)N3CCNCC3)c(F)c2)c1C#Cc1ccc(N)nc1 [Example E-14] | 353
CCc1ncnc(-c2ccc(C(=O)N3CCC[C@H]3CO)c(F)c2)c1C#Cc1ccc(N)nc1 [Example E-17] | 136
CCc1ncnc(-c2ccc(C(=O)N3CCN(CC4CC4)CC3)c(Cl)c2)c1C#Cc1ccc(N)nc1 [Example E-18] | 228
CCc1ncnc(-c2ccc(C(=O)N3CCC4(CC3)OCCCO4)c(Cl)c2)c1C#Cc1ccc(N)nc1 [Example E-19] | 90.5
CCc1ncnc(-c2ccc(C(=O)N3CCC(C(C)(C)O)CC3)c(Cl)c2)c1C#Cc1ccc(N)nc1 [Example E-20] | 101
CCc1ncnc(-c2ccc(C(=O)N3CCC(C4CCN(C)CC4)CC3)c(Cl)c2)c1C#Cc1ccc(N)nc1 [Example E-21] | 374
CCc1ncnc(-c2ccc(C(=O)NC3CCCN(C)C3)c(Cl)c2)c1C#Cc1ccc(N)nc1 (centres unmarked) [Example E-22] | 510
CCc1ncnc(-c2ccc(C(=O)N3CCC(OC)CC3)c(Cl)c2)c1C#Cc1ccc(N)nc1 [Example E-24] | 93.5
CCc1ncnc(-c2ccc(C(=O)N3CCC(C)(O)CC3)c(Cl)c2)c1C#Cc1ccc(N)nc1 [Example E-25] | 76.8
CCc1ncnc(-c2ccc(C(=O)N3CCC4(CCN(C)CC4)CC3)c(Cl)c2)c1C#Cc1ccc(N)nc1 [Example E-26] | 498
